# Results as given in BindingDB's records for patent US9708333 (Incyte Corporation, 2017).
# Legend:
# [1] = target: Tyrosine-protein kinase JAK1 (Homo sapiens, UniProt P23458); experiment: JAK1 Assay
# [2] = target: T1, Phosphatidylinositol 4,5-bisphosphate 3-kinase catalytic subunit delta isoform (Homo sapiens, UniProt O00329); experiment: PI3K Delta Assay
# T1 sequence (O00329 whole entry): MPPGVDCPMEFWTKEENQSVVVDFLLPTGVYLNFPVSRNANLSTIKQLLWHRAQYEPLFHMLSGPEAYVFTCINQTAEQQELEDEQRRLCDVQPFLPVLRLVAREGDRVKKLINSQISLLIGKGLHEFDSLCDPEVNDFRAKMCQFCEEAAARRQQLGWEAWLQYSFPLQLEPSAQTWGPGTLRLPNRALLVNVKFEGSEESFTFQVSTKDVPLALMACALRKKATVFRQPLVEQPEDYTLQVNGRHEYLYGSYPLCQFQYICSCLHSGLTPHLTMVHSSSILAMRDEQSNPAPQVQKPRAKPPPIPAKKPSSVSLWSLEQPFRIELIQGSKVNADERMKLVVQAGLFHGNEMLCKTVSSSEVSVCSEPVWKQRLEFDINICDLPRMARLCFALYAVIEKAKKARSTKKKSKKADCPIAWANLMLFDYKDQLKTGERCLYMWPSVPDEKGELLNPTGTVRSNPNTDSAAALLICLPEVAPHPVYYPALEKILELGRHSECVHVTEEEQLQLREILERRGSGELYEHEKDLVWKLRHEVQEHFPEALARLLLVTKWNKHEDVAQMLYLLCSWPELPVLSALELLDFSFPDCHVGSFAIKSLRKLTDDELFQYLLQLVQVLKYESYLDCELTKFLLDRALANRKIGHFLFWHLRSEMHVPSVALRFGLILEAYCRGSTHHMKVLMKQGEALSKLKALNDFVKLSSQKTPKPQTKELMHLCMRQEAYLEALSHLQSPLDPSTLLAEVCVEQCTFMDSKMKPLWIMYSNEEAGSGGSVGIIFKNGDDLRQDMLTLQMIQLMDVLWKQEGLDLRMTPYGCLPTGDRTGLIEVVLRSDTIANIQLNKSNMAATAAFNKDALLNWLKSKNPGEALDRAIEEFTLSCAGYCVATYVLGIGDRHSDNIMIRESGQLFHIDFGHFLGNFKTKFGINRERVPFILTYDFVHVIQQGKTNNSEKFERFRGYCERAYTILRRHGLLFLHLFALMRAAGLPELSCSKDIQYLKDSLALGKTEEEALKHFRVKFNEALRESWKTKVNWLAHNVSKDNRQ
# Text: Selectivity can be measured by methods routine in the art. In some embodiments, selectivity can be tested at the Km ATP concentration of each enzyme. In some embodiments, the selectivity of compounds described herein can be determined by cellular assays associated with particular PI3K kinase activity.
# Tyrosine-protein kinase JAK1, sequence (P23458 whole entry, canonical isoform): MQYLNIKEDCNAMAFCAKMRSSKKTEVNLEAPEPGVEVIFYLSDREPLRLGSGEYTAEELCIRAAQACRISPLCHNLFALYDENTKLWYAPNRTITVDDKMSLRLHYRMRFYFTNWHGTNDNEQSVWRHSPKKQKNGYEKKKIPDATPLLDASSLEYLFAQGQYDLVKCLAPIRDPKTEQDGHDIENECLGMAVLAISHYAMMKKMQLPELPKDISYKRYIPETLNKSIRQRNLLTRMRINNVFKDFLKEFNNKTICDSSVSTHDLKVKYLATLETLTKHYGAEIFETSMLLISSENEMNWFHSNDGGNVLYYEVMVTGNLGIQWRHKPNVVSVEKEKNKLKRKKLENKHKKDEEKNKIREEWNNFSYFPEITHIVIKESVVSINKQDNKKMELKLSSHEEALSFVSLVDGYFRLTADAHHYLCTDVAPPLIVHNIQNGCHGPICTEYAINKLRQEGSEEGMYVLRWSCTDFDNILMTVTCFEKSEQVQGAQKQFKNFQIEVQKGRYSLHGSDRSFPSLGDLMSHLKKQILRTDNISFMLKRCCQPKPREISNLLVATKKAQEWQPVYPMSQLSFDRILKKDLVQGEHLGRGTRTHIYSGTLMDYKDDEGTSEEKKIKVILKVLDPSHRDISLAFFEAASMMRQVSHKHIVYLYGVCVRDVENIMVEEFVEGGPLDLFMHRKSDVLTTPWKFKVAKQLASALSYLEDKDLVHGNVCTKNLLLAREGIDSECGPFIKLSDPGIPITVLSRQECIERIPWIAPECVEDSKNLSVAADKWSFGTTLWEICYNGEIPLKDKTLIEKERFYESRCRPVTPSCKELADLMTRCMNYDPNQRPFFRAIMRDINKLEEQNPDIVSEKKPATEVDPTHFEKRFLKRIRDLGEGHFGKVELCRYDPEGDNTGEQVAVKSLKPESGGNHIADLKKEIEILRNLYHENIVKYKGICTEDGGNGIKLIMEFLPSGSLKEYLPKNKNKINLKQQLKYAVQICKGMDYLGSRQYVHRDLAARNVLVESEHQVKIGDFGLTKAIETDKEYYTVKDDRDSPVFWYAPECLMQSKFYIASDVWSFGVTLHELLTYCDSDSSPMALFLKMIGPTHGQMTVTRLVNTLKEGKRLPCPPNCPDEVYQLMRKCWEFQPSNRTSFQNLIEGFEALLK
IC50 [1],Structure (SMILES),IC50 [2]
< 10 nM,"N#CCC(CN1CCN(C(=O)c2ccc(C#N)cc2F)CC1)n1cc(-c2ncnc3[nH]ccc23)cn1 (configuration not stated) [4-[(4-{3-cyano-2-[4-(7H-pyrrolo[2,3-d]pyrimidin-4-yl)-1H-pyrazol-1-yl]propyl}piperazin-1-yl)carbonyl]-3-fluorobenzonitrile]",–
–,"CCOc1c(C(C)n2nc(C)c3c(N)ncnc32)cc(Cl)c(F)c1C1CNC(=O)C1 (configuration not stated) [4-{3-[1-(4-amino-3-methyl-1H-pyrazolo[3,4 d]pyrimidin-1-yl)ethyl]-5-chloro-2-ethoxy-6-fluorophenyl}pyrrolidin-2-one]",125 nM
